Like-named read-outs stand apart in the source and are kept apart here.
Tests used:
[1] = Limited organ bio-distribution in mice; format: in vivo, Female Swiss Albino mice; settings: for Kidney (% ID) / Small Intestine (% ID) / Urine (% ID) / Liver (% ID): n=4
Procedure: Female Swiss Albino mice were randomized (4 animals per time-point) according to body weight on the day prior to the experimental date. Some of the selected compounds of formula (I) are evaluated for a limited bio-distribution study involving five selected organs of interest such as Blood, Liver, Small Intestines, Kidneys and Urine. Each compound was dissolved in a vehicle comprising of 10% N-methyl-2-pyrrolidone in sterile water to achieve a final strength of 1 mg/mL. The mixture was sonicated for 2 min to yield a clear solution. Compound was administered to mice via tail vein at a dose volume of 2 mL/kg in order to obtain a final dose of 2 mg/kg. […] Blood was collected from the retro-orbital plexus in K2-EDTA containing tubes, centrifuged, plasma harvested and stored at −80° C. until further analysis. Liver, kidneys (right and left), and small intestine were harvested, weighted, and stored at −80° C. The small intestine was flushed with normal saline prior to storage. Urine was collected directly from the bladder and stored at −80° C.
Liver, kidneys, and small intestine were homogenized in water at 20% w/v. The respective homogenates were mixed thoroughly and stored at −80° C. until further processing. An aliquot of 100 μL of plasma/tissue homogenate was transferred to a 1.5 mL micro centrifuge tube. Twenty five microliters of compound (5 μg/mL), hundred microliters of 1% formic acid and 750 μL of tert-butyl methyl ether were added and sample was vortexed for 3 min. After centrifugation of the sample at 12,000 rpm at 4° C. for 5 min, supernatant was removed and evaporated under nitrogen stream at 40° C. for an additional 10 min (nitrogen evaporator, Caliper Instruments USA). The residue was reconstituted with 125 μL of solution (acetonitrile:water 1:1) and 10 μL was injected into the chromatographic system. On similar lines, an aliquot of 50 μL of urine was transferred to a 1.5 mL micro centrifuge tube. One hundred and fifty microliters of compound (5 μg/mL), was added and sample was vortexed for 3 min. After centrifugation of the sample at 12,000 rpm at 4° C. for 5 min, supernatant was removed and 10 μL was subjected to LC-MS/MS (Thermo Quantum Ultra) for the analysis.
Analyte concentrations were determined by evaluating the peak area ratio of drug to internal standard against a standard curve. The standard curve was prepared by plotting the relationship between peak area ratio of analyte to internal standard against concentration of standard CC samples by using linear regression y=ax+b and putting the 1/x^2 as weighting factor.
Data were expressed as ng/g for liver, kidneys, and small intestine. Percent compound in tissues was calculated based on the absolute dose administered (mg/kg). Plasma concentrations as a percent of administered dose were extrapolated assuming a total blood volume of 6% body weight and a 60% yield (plasma from blood). Compound concentrations in urine were expressed as μg per total volume collected.

[2] = Plasma clearance in rats, single injection clearance method; settings: for Plasma clearance: normal rats; for Clearance: rats, 2 mg/kg i.v. bolus tail vein, n=3, LC-MS/MS, noncompartmental
Procedure: The experiment for each compound was performed in isoflurane-anesthetized male SD rats (body weight 180-260 gm; n=3). Solution formulation of each compound was prepared in sterile water for injection with strength of 1 mg/mL. All solution formulations were prepared freshly prior to dosing. The dose volume for i.v bolus injection was 2 mL/kg. Three rats for each compound were administered intravenously (i.v.) bolus injection in tail vein at 2 mg/kg body weight. Blood samples were obtained at pre-dose (0 hr), 0.08, 0.17, 0.25, 0.5, 0.75, 1 and 2 hr post dosing. The blood samples (˜120 μL) were taken from the retro-orbital plexus into labelled micro centrifuge tubes, containing 10 μL of 2% w/v K2EDTA solution, as an anticoagulant. […] Bioanalysis of rat plasma samples were analysed with developed method for each analyte using LC-MS/MS (Waters, Xevo TQ-S). The pharmacokinetic parameters such as area under the curve (AUC), elimination half-life (T1/2), volume of distribution (Vss) and clearance (CL) were estimated using a noncompartmental model in Phoenix WinNonlin software, version 6.3.

[3] = literature, cited from earlier work; for Plasma clearance: known renal diagnostic agents
[4] = 15 min after injection, 2 mg/kg tail vein
[5] = 15 min after injection, 2 mg/kg tail vein, n=4, plasma extrapolated assuming blood volume 6% body weight, 60% yield
[6] = 60 min after injection, n=4, plasma extrapolated to blood

Molecule	Kidney (% ID) [1, 4] [% ID]	Small Intestine (% ID) [1, 4] [% ID]	Urine (% ID) [1, 4] [% ID]	Kidney (% ID) ([1]; 60 min after injection)	Small Intestine (% ID) ([1]; 60 min after injection)	Plasma clearance [2] [ml/min/100 g]	Clearance [2] [mL/min/100 g]	retention in liver, small intestine and kidney (in words) ([1]; 15 min after injection)	Liver (% ID) [1, 4] [% ID]	Blood (% ID) [1, 5] [% ID]	Liver (% ID) ([1]; 60 min after injection)	Blood (% ID) [1, 6] [% ID]	Plasma clearance [3] [ml/min/100 g]	clearance as percent of the clearance of 131I-OIH [3]
Nc1ccc(C(=O)NCC(=O)O)c([18F])c1 [Compound 1, 2-(4-amino-2-(18)fluorobenzamido)acetic acid]	0.51 ± 0.45	0.07 ± 0.08	87.76 ± 6.03	0.00 ± 0.00	0.00 ± 0.00	–	–	–	–	–	–	–	–	–
CC(=O)Nc1ccc(C(=O)NCC(=O)O)c([18F])c1 [Compound 2, 2-(4-Acetamido-2-(18)fluorobenzamido)acetic acid]	1.19 ± 0.53	0.09 ± 0.04	84.42 ± 3.44	0.05 ± 0.09	0.02 ± 0.02	–	–	–	–	–	–	–	–	–
Nc1cc(C(=O)NCC(=O)O)ccc1[18F] [Compound 3, 2-(3-Amino-4-(18)fluorobenzamido)acetic acid]	0.13 ± 0.01	0.04 ± 0.02	72.73 ± 1.91	0.00 ± 0.00	0.00 ± 0.00	2.78±0.19	2.78 ± 0.19	minimum retention	0.08 ± 0.04	0.83 ± 0.02	0.00 ± 0.00	0.02 ± 0.02	–	–
Nc1ccc(C(=O)NCC(=O)O)cc1[19F] [Compound 6, 2-(4-Amino-3-(18)fluorobenzamido)acetic acid]	0.47 ± 0.20	0.11 ± 0.08	78.21 ± 4.79	0.01 ± 0.01	0.01 ± 0.01	3.48±0.63	3.48 ± 0.63	minimum retention	0.08 ± 0.02	0.68 ± 0.38	0.02 ± 0.02	0.02 ± 0.01	–	–
Nc1cccc([18F])c1C(=O)NCC(=O)O [Compound 8, 2-(2-Amino-6-(18)fluorobenzamido)acetic acid]	0.91 ± 0.40	0.10 ± 0.09	87.51 ± 4.14	0.02 ± 0.03	0.01 ± 0.01	–	1.55 ± 0.10	–	–	–	–	–	–	–
C[C@H](NC(=O)c1ccc(N)cc1[18F])C(=O)O [Compound 10, (S)-2-(4-Amino-2-(18)fluorobenzamido)propanoic acid]	0.09 ± 0.04	0.01 ± 0.01	83.59 ± 8.82	0.00 ± 0.00	0.00 ± 0.00	3.25±0.13	3.25 ± 0.13	minimum retention	0.21 ± 0.05	0.50 ± 0.27	0.05 ± 0.07	0.01 ± 0.00	–	–
C[C@@H](NC(=O)c1ccc(N)cc1[18F])C(=O)O [Compound 11, (R)-2-(4-Amino-2-(18)fluorobenzamido)propanoic acid]	0.06 ± 0.02	0.09 ± 0.05	82.31 ± 9.60	0.01 ± 0.02	0.00 ± 0.00	3.36±0.41	3.36 ± 0.41	minimum retention	0.02 ± 0.03	0.94 ± 0.53	0.00 ± 0.00	0.12 ± 0.17	–	–
O=C(O)CNC(=O)c1ccccc1[131I] [Compound I-131, I-131-ortho iodohippuran]	–	–	–	–	–	–	–	–	–	–	–	–	2.17	–
Tc-99m MercaptoAcetylGlycylGlycylGlycine [Tc-99m MAG-3]	–	–	–	–	–	–	–	–	–	–	–	–	2.84	50%-60%
